According to patent US20210002231A1 (Centre National de la Recherche Scientifique, priority 2018, published 2021):
Starred links: 1 amine or outer side, 2 acyl side, 3 side chain; linkers in the order of their positions; H or OH if unused. Non-standard residues stand in square brackets, D forms with d. Residues, ends and D or L forms follow the SMILES beside them. Nva(5-(4-Bn-piperidin-1-yl)) = N[C@@H](CCCN1CCC(Cc2ccccc2)CC1)C(=O)O; X1 = O=C1[C@@H](N[*:1])Cc2ccccc2CN1CCC(=O)[*:2]; Dmt = Cc1cc(O)cc(C)c1C[C@H](N)C(=O)O

What was measured:
[1] = molecular target: T1, NPFF2R (Homo sapiens, UniProt Q9Y5X5); assay: Radioligand competition binding with [125I]-1-DMe-NPFF; parameters: expressed in transfected cells; HEK293-Glo20F cells (cAMP)
T1 sequence (Q9Y5X5 whole entry): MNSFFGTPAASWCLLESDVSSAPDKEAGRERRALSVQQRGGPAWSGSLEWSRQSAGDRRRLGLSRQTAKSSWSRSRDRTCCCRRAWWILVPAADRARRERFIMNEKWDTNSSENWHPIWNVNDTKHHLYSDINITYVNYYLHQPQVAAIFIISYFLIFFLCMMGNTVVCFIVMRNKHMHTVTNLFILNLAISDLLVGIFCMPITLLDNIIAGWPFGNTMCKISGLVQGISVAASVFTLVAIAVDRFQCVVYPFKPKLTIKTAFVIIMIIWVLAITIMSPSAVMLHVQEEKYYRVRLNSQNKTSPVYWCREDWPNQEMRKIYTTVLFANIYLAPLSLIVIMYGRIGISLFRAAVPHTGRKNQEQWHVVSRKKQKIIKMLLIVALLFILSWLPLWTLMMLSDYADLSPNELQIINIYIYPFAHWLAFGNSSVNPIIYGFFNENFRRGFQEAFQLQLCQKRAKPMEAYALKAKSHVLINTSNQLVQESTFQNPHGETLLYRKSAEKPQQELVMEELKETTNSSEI

[2] = molecular target: T2, human MOPr (Homo sapiens, UniProt P35372); assay: BRET1 β-arrestin-2 recruitment assay; format: cell-based; parameters: expressed in transfected cells; host or cells: HEK293 cells stably expressing eYFP-β-arrestin-2, transiently transfected with the Rluc8-MOP plasmid; conditions: for EC50: Table 3B, — = non-detectable recruitment, read-out: MOPr (β-arrestin-2) EC50; for Emax: read-out: MOPr (β-arrestin-2) Emax;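 on MOPr (β-arrestin-2) Emax: Emax relative to maximal DAMGO-induced BRET as 100%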
T2 sequence (P35372 whole entry): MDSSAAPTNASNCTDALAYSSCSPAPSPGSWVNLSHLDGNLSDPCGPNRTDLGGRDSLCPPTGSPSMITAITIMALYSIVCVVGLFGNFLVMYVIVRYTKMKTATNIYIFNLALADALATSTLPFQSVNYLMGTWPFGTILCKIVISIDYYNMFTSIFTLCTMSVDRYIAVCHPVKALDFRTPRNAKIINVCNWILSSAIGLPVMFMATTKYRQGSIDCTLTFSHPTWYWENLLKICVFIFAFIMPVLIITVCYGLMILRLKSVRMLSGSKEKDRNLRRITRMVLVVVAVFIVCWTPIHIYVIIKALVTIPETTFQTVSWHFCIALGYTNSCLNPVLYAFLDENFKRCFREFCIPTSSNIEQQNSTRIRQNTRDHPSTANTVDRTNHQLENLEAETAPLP
Outline: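 HEK293 cells stably expressing eYFP-β-arrestin-2 were transfected two days before with Rluc8-tagged MOP receptor. BRET was read at 37 °C with 5 μM coelenterazine H, 5 min after agonist addition.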

[3] = molecular target: T1, NPFF2R; assay: Glo-sensor cAMP assay, agonist and antagonist mode; format: cell-based; parameters: expressed in transfected cells; HEK293-Glo20F cells (cAMP); conditions: evaluated at 0.5 and 5 μM
[4] = molecular target: T2, human MOPr; assay: cell-based; format: cell-based; parameters: expressed in transfected cells; HEK293-Glo20F cells (cAMP); conditions: for EC50: Table 3B, read-out: MOPr (cAMP) EC50; for Emax: read-out: MOPr (cAMP) Emax
Outline: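 GTPγS binding used membranes of CHO cells expressing NPFF1R or NPFF2R, stimulated by RF-amide peptides or test compounds. cAMP was measured in HEK293 cells stably carrying Glosensor-20F, with or without stable expression of an opioid receptor or NPFF1R, in the presence of 1 mM D-luciferin.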

[5] = molecular target: human NPFF1R (Homo sapiens, UniProt Q9GZQ6); assay: Radioligand competition binding with [125I]-1-DMe-NPFF; parameters: expressed in transfected cells; HEK293-Glo20F cells (cAMP)
Chain of human NPFF1R (Q9GZQ6 whole entry): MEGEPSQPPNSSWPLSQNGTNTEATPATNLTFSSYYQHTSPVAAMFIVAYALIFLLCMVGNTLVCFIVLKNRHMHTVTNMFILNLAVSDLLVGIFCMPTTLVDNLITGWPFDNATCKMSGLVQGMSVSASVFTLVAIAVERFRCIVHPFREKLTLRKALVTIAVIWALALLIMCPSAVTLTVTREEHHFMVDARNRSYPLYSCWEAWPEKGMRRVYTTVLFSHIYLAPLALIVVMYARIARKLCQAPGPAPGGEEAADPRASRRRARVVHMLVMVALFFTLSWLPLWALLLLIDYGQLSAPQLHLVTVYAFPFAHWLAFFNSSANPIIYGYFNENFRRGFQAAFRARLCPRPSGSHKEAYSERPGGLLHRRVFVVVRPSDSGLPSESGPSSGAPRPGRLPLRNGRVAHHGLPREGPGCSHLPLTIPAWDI
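Wherever MOPr (cAMP) Emax is given: Emax relative to DAMGO as 100%.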

Cc1cc(O)cc(C)c1C[C@H](N)C(=O)N[C@H](CCCNC(=N)N)C(=O)N[C@H]1Cc2ccccc2CN(CCC(=O)N[C@@H](CCCN2CCC(Cc3ccccc3)CC2)C(=O)N[C@@H](CC(C)C)C(N)=O)C1=O [DP0003, H-Dmt-D-Arg-Aba-β-Ala-Bpa-Leu-NH2] (H-[Dmt][dR][X1][Nva(5-(4-Bn-piperidin-1-yl))]L-NH2)
IC50 [1]: < 50 nM
EC50 [2]: 37 nM
Emax [2]: 38%
NPFF2R (cAMP) Agonist mode [3]: Partial
EC50 [4]: 20.1 ± 10 nM
Emax [4]: 70%
IC50 [5]: 50 to 500 nM

CC[C@H](C)[C@H](NC(=O)[C@H](CCCN1CCC(Cc2ccccc2)CC1)NC(=O)CCN1Cc2ccccc2C[C@H](NC(=O)[C@@H](CCCNC(=N)N)NC(=O)[C@@H](N)Cc2c(C)cc(O)cc2C)C1=O)C(N)=O [DP0002, H-Dmt-D-Arg-Aba-β-Ala-Bpa-Ile-NH2] (H-[Dmt][dR][X1][Nva(5-(4-Bn-piperidin-1-yl))]I-NH2)
IC50 [1]: < 50 nM
EC50 [2]: 45 nM
Emax [2]: 49%
NPFF2R (cAMP) Agonist mode [3]: Partial
EC50 [4]: 8.9 ± 2.6 nM
Emax [4]: 110%
IC50 [5]: 50 to 500 nM
